Values joined by “and” are separate entries in the source; they are usually repeats but may differ in a detail not shown here. Equal entries are not always repeated. Toxic doses and inconclusive results are not listed.

The test system of this test is CD2F1 mice, L1210 leukemia ip, survival T/C. The experiment in a line: NCI In Vivo Anticancer Drug Screen. Data for tumor model L1210 Leukemia (intraperitoneal) in CD2F1 (CDF1) mice. The note with it: endpoint: mean survival time, higher = longer survival. A digest of the protocol:
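Transplantable tumor in mice; compound-treated vs vehicle-treated groups. Read-out = treated/control ratio of the measured endpoint.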

The mark [1] stands for this setting: dose: 100.0 mg/kg/injection, schedule: Q01DX009 (ip), vehicle: saline with Tween-80.
Setting [2] is: dose: 200.0 mg/kg/injection, schedule: Q01DX009 (ip), vehicle: saline with Tween-80.
The mark [3] stands for this setting: dose: 400.0 mg/kg/injection, schedule: Q01DX009 (ip), vehicle: saline with Tween-80.
[4] abbreviates: dose: 100.0 mg/kg/injection, schedule: Q04DX003 (ip), vehicle: saline with Tween-80.
Setting [5] is: dose: 200.0 mg/kg/injection, schedule: Q04DX003 (ip), vehicle: saline with Tween-80.
[6] abbreviates: dose: 400.0 mg/kg/injection, schedule: Q04DX003 (ip), vehicle: saline with Tween-80.
Where [7] appears, read: dose: 100.0 mg/kg/injection, schedule: Q01DX001 (ip), vehicle: saline with Tween-80.
Setting [8] is: dose: 200.0 mg/kg/injection, schedule: Q01DX001 (ip), vehicle: saline with Tween-80.

As to `O=[N+]([O-])O.O=[N+]([O-])O.[NH-]C1CCCCC1[NH-].[Pt+2]` (configuration not stated), the T/C (dose: 0.03 mg/kg/injection, schedule: Q01DX009 (ip), vehicle: other) was 120 % of control; the T/C (dose: 0.13 mg/kg/injection, schedule: Q04DX003 (ip), vehicle: other) is 120 % of control; the T/C (dose: 0.19 mg/kg/injection, schedule: Q04DX003 (ip), vehicle: saline) was 119 % of control; the T/C (dose: 0.25 mg/kg/injection, schedule: Q01DX009 (ip), vehicle: dextrose) is 98 % of control; the T/C (dose: 0.39 mg/kg/injection, schedule: Q01DX005 (ip), vehicle: saline) is 119 % of control; the T/C (dose: 0.39 mg/kg/injection, schedule: Q04DX003 (ip), vehicle: saline) is 120 % of control. Further, the T/C (dose: 0.5 mg/kg/injection, schedule: Q01DX001 (ip), vehicle: other) is 113 % of control; the T/C (dose: 1.0 mg/kg/injection, schedule: Q01DX009 (ip), vehicle: dextrose) was 119 % of control; the T/C (dose: 1.0 mg/kg/injection, schedule: Q01DX009 (ip), vehicle: other) was 90 % of control; the T/C (dose: 3.12 mg/kg/injection, schedule: Q01DX005 (oral), vehicle: saline) is 97 % of control; the T/C (dose: 4.0 mg/kg/injection, schedule: Q04DX003 (ip), vehicle: other) is 95 % of control; the T/C (dose: 6.25 mg/kg/injection, schedule: Q01DX005 (oral), vehicle: saline) was 97 % of control. The T/C (dose: 12.5 mg/kg/injection, schedule: Q04DX003 (ip), vehicle: saline) is 100 % of control.
For `COc1cccc2c1C(=O)c1c(O)c3c(c(O)c1C2=O)C[C@@](O)(C(=O)COC(=O)Cc1cccc2ccccc12)C[C@@H]3OC1CC(N)C(O)C(C)O1` (some centres not stated), the T/C reads like this: (dose: 0.5 mg/kg/injection, schedule: Q01DX009 (ip), vehicle: saline with Tween-80) 118 % of control; (dose: 1.0 mg/kg/injection, schedule: Q01DX001 (ip), vehicle: other) 116 % of control; (dose: 2.5 mg/kg/injection, schedule: Q01DX001 (ip), vehicle: saline with Tween-80) 117 % of control; (dose: 5.0 mg/kg/injection, schedule: Q04DX003 (ip), vehicle: other) 152 % of control; (dose: 8.0 mg/kg/injection, schedule: Q01DX009 (ip), vehicle: saline with Tween-80) 122 % of control; (dose: 10.0 mg/kg/injection, schedule: Q04DX003 (ip), vehicle: saline with Tween-80) 151 % of control. In addition, the T/C (dose: 16.0 mg/kg/injection, schedule: Q01DX009 (ip), vehicle: saline with Tween-80) is 88 % of control and the T/C (dose: 32.0 mg/kg/injection, schedule: Q01DX001 (ip), vehicle: other) was 90 % of control.
In the case of `CN1C=NN(C)C=N1`, the T/C (dose: 75.0 mg/kg/injection, schedule: Q01DX001 (ip), vehicle: saline) is 100 % of control; the T/C (dose: 150.0 mg/kg/injection, schedule: Q01DX001 (ip), vehicle: saline) was 97 % of control; the T/C (dose: 300.0 mg/kg/injection, schedule: Q01DX001 (ip), vehicle: saline) was 108 % of control.
Consider `CC(=O)Nc1ccc(/C=N/NC(=O)CNC(=O)Nc2ccc(Cl)c(Cl)c2)cc1`, for which the T/C runs as follows: under setting [1], 95 % of control; under setting [2], 100 % of control; under setting [3], 109 % of control.
Turning to `CCOC(=O)c1cc(CO)nc2c(Cl)cc(Cl)cc12`, the T/C was 91 % of control under setting [1]; 93 % of control under setting [4]; 90 % of control under setting [2]; 90 % of control under setting [5]; 90 % of control under setting [3]; 93 % of control under setting [6].
Consider `CC(C)(CCC(=O)O)c1ccc(O)cc1`, for which the T/C runs as follows: (dose: 100.0 mg/kg/injection, schedule: Q04DX003 (ip), vehicle: saline) 101 % of control; (dose: 200.0 mg/kg/injection, schedule: Q04DX003 (ip), vehicle: saline) 103 % of control; (dose: 400.0 mg/kg/injection, schedule: Q04DX003 (ip), vehicle: saline) 103 % of control.
Turning to `S=C=Nc1cccc(Cl)c1`, the T/C by setting is: (dose: 75.0 mg/kg/injection, schedule: Q01DX009 (ip), vehicle: saline with Tween-80) 95 % of control and 100 % of control; (dose: 150.0 mg/kg/injection, schedule: Q01DX009 (ip), vehicle: saline with Tween-80) 100 % of control; (dose: 300.0 mg/kg/injection, schedule: Q01DX009 (ip), vehicle: saline with Tween-80) 86 % of control.
`COc1ccc(C(=O)OCC(=O)O)cc1`: the T/C is, setting by setting: (dose: 50.0 mg/kg/injection, schedule: Q01DX001 (ip), vehicle: saline with Tween-80) 102 % of control; under setting [7], 98 % of control; under setting [8], 102 % of control.
For the molecule `CC1(C)CN1P(=S)(N1CC1(C)C)N1CC1(C)C` (configuration not stated), for the setting “dose: 338.0 mg/kg/injection, schedule: Q01DX001 (ip), vehicle: other”, the T/C is 190 % of control and 277 % of control.
As for `c1ccc2[s+]cccc2c1`, the T/C under setting [4] is 95 % of control.
Regarding `COC1C(/C=C/C(C)=O)OC2OC(C)(C)OC21` (configuration not stated), the T/C is 110 % of control (dose: 6.25 mg/kg/injection, schedule: Q01DX009 (ip), vehicle: saline); 110 % of control (dose: 12.5 mg/kg/injection, schedule: Q01DX009 (ip), vehicle: saline); 95 % of control (dose: 25.0 mg/kg/injection, schedule: Q01DX009 (ip), vehicle: saline); 103 % of control (dose: 50.0 mg/kg/injection, schedule: Q01DX009 (ip), vehicle: saline); 109 % of control (dose: 100.0 mg/kg/injection, schedule: Q01DX009 (ip), vehicle: saline); 116 % of control (dose: 200.0 mg/kg/injection, schedule: Q01DX009 (ip), vehicle: saline).
As to `O=c1ccn(C2OC(CCl)C(O)C2O)c(=O)[nH]1` (configuration not stated), the T/C (dose: 50.0 mg/kg/injection, schedule: Q01DX001 (ip), vehicle: saline) is 105 % of control; the T/C (dose: 100.0 mg/kg/injection, schedule: Q01DX001 (ip), vehicle: saline) is 102 % of control; the T/C (dose: 200.0 mg/kg/injection, schedule: Q01DX001 (ip), vehicle: saline) is 94 % of control.
Take `O=C(CC(O)(C(F)(F)F)C(F)(F)F)c1ccc([N+](=O)[O-])cc1`: the T/C reads like this: (dose: 100.0 mg/kg/injection, schedule: Q01DX009 (ip), vehicle: other) 97 % of control; (dose: 200.0 mg/kg/injection, schedule: Q01DX009 (ip), vehicle: other) 97 % of control; (dose: 400.0 mg/kg/injection, schedule: Q01DX009 (ip), vehicle: other) 101 % of control.
`O=C(O)c1ccccc1CCl`: the T/C was 103 % of control under setting [4], 108 % of control under setting [5] and 108 % of control under setting [6].
For `O=[N+]([O-])c1ccc2[nH]ncc2c1`, the T/C reads like this: under setting [7], 103 % of control; under setting [8], 92 % of control; (dose: 400.0 mg/kg/injection, schedule: Q01DX001 (ip), vehicle: saline with Tween-80) 100 % of control.

Values taken from PubChem BioAssay AID256 (DTP/NCI, 2004).
